Among the data in the Deep4Chem optical property database are photoluminescence quantum yield values, retold here.

The structures appear in SMILES notation. Values joined by “and” are separate entries in the source; they are usually repeats but may differ in a detail not shown here. Equal entries are not always repeated.

The data set is described as follows: photoluminescence quantum yield (fraction); solvent given as SMILES.
Where [1] appears, read: in O=P(c1ccccc1)(c1ccccc1)c1ccccc1Oc1ccccc1P(=O)(c1ccccc1)c1ccccc1.

With `COc1cc(OC)cc(C2=C3C(C)=C(I)C(/C=C/c4c[nH]c5ccc([N+](=O)[O-])cc45)=[N+]3[B-](F)(F)n3c(/C=C/c4c[nH]c5ccc([N+](=O)[O-])cc45)c(I)c(C)c32)c1`, the photoluminescence quantum yield worked out at 0.03 (in C1CCOC1), 0.02 (in CS(C)=O) and 0.02 (in ClCCl).
For `CC1(C)c2ccccc2-c2cc3c4cc(-n5c6ccccc6c6ccccc65)ccc4n(-c4ccc(-c5nc(-c6ccccc6)nc(-c6ccccc6)n5)cc4)c3cc21`, the photoluminescence quantum yield under setting [1] amounted to 0.84.
In the case of `CN(C)c1ccc(/C=C/C=C2\CC/C(=C\c3ccc(N(C)C)cc3)C2=O)cc1`, the photoluminescence quantum yield turned out to be 0.16 (in C1CCOC1); 0.29 (in CC#N); 0.31 (in CC(C)=O); 0.33 (in CC(C)O); 0.007 (in CCCCCC); 0.36 (in CCCCO). In addition, the photoluminescence quantum yield runs as follows: (in CCCCOC(C)=O) 0.16; (in CCCO) 0.34; (in CCO) 0.23; (in CCOC(=O)c1ccccc1) 0.24; (in CCOC(C)=O) 0.2; (in CCOCC) 0.073. Also, the photoluminescence quantum yield runs as follows: (in CN(C)C=O) 0.36; (in CO) 0.11; (in CS(C)=O) 0.4; (in Cc1ccccc1) 0.11; (in ClC(Cl)(Cl)Cl) 0.068; (in ClC(Cl)Cl) 0.27. For the same molecule, the photoluminescence quantum yield was 0.36 (in ClCCl); 0.24 (in Clc1ccccc1Cl); 0.13 (in S=C=S); 0.13 (in c1ccccc1); 0.38 (in c1ccncc1).
For the molecule `O=c1[nH]c(=O)c2nc3ccccc3nc2[nH]1`, the photoluminescence quantum yield (in CC#N) is 0.009.
With `COC(=O)c1ccc(O)c(-c2[nH]c(=O)n3c2-c2ccccc2C3=O)c1`, the photoluminescence quantum yield reads like this: (in CC#N) 0.46; (in CO) 0.35; (in ClCCl) 0.86.
On to `CC(C)[Si]1(C(C)C)c2cc(C=O)ccc2-c2ccc(N(c3ccccc3)c3ccccc3)cc21`, for which the photoluminescence quantum yield came to 0.5 (in C1CCCCC1); 0.48 (in CC#N); 0.11 (in CCO); 0.76 (in CCOCC); 0.58 (in CS(C)=O); 0.8 (in ClCCl). The photoluminescence quantum yield (in c1ccccc1) was determined as 0.77.
In the case of `CCC1=C(C)C2=Cc3c(I)c(I)c(I)n3[B-](F)(F)[N+]2=C1C`, the photoluminescence quantum yield came out at 0.065 (in C1CCCCC1); 0.029 (in CC(C)=O); 0.037 (in CCO); 0.037 (in CCOC(C)=O); 0.032 (in CO); 0.021 (in OCC(F)(F)F).
As to `CCCCCCCCC1(CCCCCCCC)c2cc(-c3ccc([Si](C)(C)C)cc3)ccc2-c2ccc(-c3ccc([Si](C)(C)C)cc3)cc21`, where the note is “in ClC(Cl)Cl”, the photoluminescence quantum yield is 0.89.
`Cc1cc2cc(C)c3c4ccccc4[nH]c3c2o1` gave a photoluminescence quantum yield (in ClCCl) of 0.2.
Turning to `Nc1nc(/C=C/c2ccc(N(c3ccccc3)c3ccccc3)cc2)cc(/C=C/c2ccc(N(c3ccccc3)c3ccccc3)cc2)n1`, the photoluminescence quantum yield was found to be 0.88 (in Cc1ccccc1) and 0.73 (in ClC(Cl)Cl).
As to `CN(C)CCNCc1c2ccccc2cc2ccccc12`, the photoluminescence quantum yield is, setting by setting: (in C1CCCCC1) 0.0769; (in C1CCOC1) 0.00216; (in CC#N) 0.00137; (in CC(C)=O) 0.0234; (in CCO) 0.0179; (in CN(C)C=O) 0.00064. Also, the photoluminescence quantum yield was determined as 0.0124 (in CO) and 0.0315 (in ClC(Cl)Cl).
As to `CC(C)[Si](C#Cc1c2cc3ccccc3cc2c(C#Cc2ccc(Br)cc2)c2cc3ccccc3cc12)(C(C)C)C(C)C`, under “in ClCCl”, the photoluminescence quantum yield is 0.12.
For the setting “in CC#N”, `CCOC(=O)c1c2c3c(cccc3c3cc4c(cc13)[Si](C)(C)O[Si]4(C)C)N(C)C2=O` displayed a photoluminescence quantum yield of 0.51.
For `COc1ccc(C2=C(c3ccc(OC)cc3)c3cccc4c5c(cc(c34)O2)=NC2C=C(Br)C(Br)=CC2N=5)cc1` (configuration not stated), the photoluminescence quantum yield (in ClCCl) came out at 0.28.
Still for that read-out and setting: the value for `C(=C/c1ccc(N(c2ccccc2)c2ccccc2)cc1)/c1ccc(N(c2ccccc2)c2ccccc2)cc1` was 0.99; that for `O=C1OC(=O)C2=C1S[C@]13C2=C[C@H](c2ccccc21)c1ccccc13` was 0.95.
As to `Fc1ccc2c(c1)sc1nc(-c3ccccc3)sc12`, the photoluminescence quantum yield (in CS(C)=O) was 0.36.
On to `CC(C)(C)c1ccc(C(C)(C)C)c(N2C(=O)c3cccc4c(-c5ccc(-c6ccccc6)s5)ccc(c34)C2=O)c1`, for which the photoluminescence quantum yield worked out at 0.34 (in CO), 0.43 (in CS(C)=O) and 0.06 (in Cc1ccccc1).
The molecule `N#Cc1cc(C#N)c(-c2cc(-n3c4ccccc4c4ccccc43)cc(-n3c4ccccc4c4ccccc43)c2)cc1-c1cc(-n2c3ccccc3c3ccccc32)cc(-n2c3ccccc3c3ccccc32)c1` returned a photoluminescence quantum yield (in C1CCCCC1) of 0.11.
In turn, `c1ccc(B2Nc3cc4c(cc3-c3sccc32)NB(c2ccccc2)c2ccsc2-4)cc1` returned a photoluminescence quantum yield (in ClCCl) of 0.17.
Regarding `CC1=[N+]2C(=C(c3ccc(N4CCCCC4)cc3)c3ccc(C)n3[B-]2(F)F)C=C1`, the photoluminescence quantum yield is, setting by setting: (in C1CCCCC1) 0.33; (in C1CCOC1) 0.01 and 0.008; (in CC#N) 0.003 and 0.002; (in CC(=O)C(C)(C)C) 0.004; (in CC(C)=O) 0.002; (in CCCCCC) 0.341. Besides, the photoluminescence quantum yield (in CCOC(C)=O) is 0.006 and 0.005; the photoluminescence quantum yield (in CO) was 0.005 and 0.003; the photoluminescence quantum yield (in Cc1ccccc1) came out at 0.13; the photoluminescence quantum yield (in ClC(Cl)Cl) came out at 0.077.
For the setting “in Cc1ccccc1”, `c1ccc(-c2ccc3c(c2)c2cc(-c4ccccc4)ccc2n3-c2ccc3c(c2)c2cc(-n4c5ccc(-c6ccccc6)cc5c5cc(-c6ccccc6)ccc54)ccc2n3-c2ccc(-c3nc(-c4ccccc4)nc(-c4ccccc4)n3)cc2)cc1` gave a photoluminescence quantum yield of 0.74.
On to `COc1ccc2c(-c3nc(-c4ccccc4Cl)no3)cc(=O)oc2c1`, for which the photoluminescence quantum yield by setting is: (in CCO) 0.39; (in ClC(Cl)Cl) 0.19.
The molecule `O=Cc1ccc(C#CC(C#Cc2ccc(C=O)o2)=Cc2ccc(C=C(C#Cc3ccc(C=O)o3)C#Cc3ccc(C=O)o3)s2)o1` returned a photoluminescence quantum yield (in ClC(Cl)Cl) of 0.01.
Turning to `CCCCC(CC)CN1C(=O)c2cccc3c(C#Cc4ccc(N(c5ccccc5)c5ccc(C#Cc6ccc7c8c(cccc68)C(=O)N(CC(CC)CCCC)C7=O)cc5)cc4)ccc(c23)C1=O` (configuration not stated), the photoluminescence quantum yield reads like this: (in C1CCCCC1) 0.93; (in C1CCOC1) 0.85; (in CC#N) 0.012; (in Cc1ccccc1) 0.94; (in ClC(Cl)Cl) 0.44.
For the molecule `CCCCc1c2c(nc3ccccc13)-c1cc3c(cc1CC2)-c1nc2ccccc2c(CCCC)c1CC3`, the photoluminescence quantum yield (in ClC(Cl)Cl) was 0.697.
Take `COc1cc(N(c2ccccc2)c2ccccc2)ccc1C=C(C#N)C#N`: the photoluminescence quantum yield by setting is: (in C1COCCO1) 0.012; (in CC#N) 0.005; (in CC(C)=O) 0.013; (in CCOC(C)=O) 0.017; (in CN(C)C=O) 0.009; (in CO) 0.006. The photoluminescence quantum yield reads like this: (in Cc1ccccc1) 0.01; (in ClC(Cl)Cl) 0.023; (in ClCCl) 0.016.
Consider `Fc1c(F)c(-n2c3ccccc3c3ccccc32)c(F)c(-n2c3ccccc3c3ccccc32)c1-c1nnc(-c2ccccc2)o1`, for which the photoluminescence quantum yield (in Cc1ccccc1) stood at 0.08.
Consider `CCOC(=O)c1sc(-c2ccc(-c3cc(-c4ccc(C(C)(C)C)cc4)c(C(=O)OCC)s3)s2)cc1-c1ccc(C(C)(C)C)cc1`, for which the photoluminescence quantum yield (in ClCCl) was found to be 0.15.
The same measure, in the same setting: the value for `F[B-]1(F)n2c(c3ccccc3c2-c2ccccc2)N=C2c3ccccc3C(c3ccccc3)=[N+]21` was 0.14.
Under setting [1], `c1ccc(-c2cc(-c3ccc(N4c5ccccc5C(c5ccccc5)(c5ccccc5)c5ccccc54)cc3)nc(-c3ccccc3)n2)cc1` registered a photoluminescence quantum yield of 0.7.
Take `CN(C)CCN(Cc1c2ccccc2cc2ccccc12)c1ccc([N+](=O)[O-])cc1`: the photoluminescence quantum yield (in C1CCCCC1) came to 0.0008; the photoluminescence quantum yield (in C1CCOC1) came out at 0.0015; the photoluminescence quantum yield (in CC#N) worked out at 0.0143; the photoluminescence quantum yield (in CC(C)=O) turned out to be 0.022; the photoluminescence quantum yield (in CCO) came out at 0.023; the photoluminescence quantum yield (in CN(C)C=O) was determined as 0.0411. Also, the photoluminescence quantum yield reads like this: (in CO) 0.0606; (in ClC(Cl)Cl) 0.0272.
Consider `COc1ccc2c3c(c4ccc(OC)cc4c2c1)C(C)(C)c1ccc2ccccc2c1-3`, for which, where the note is “in C1CCCCC1”, the photoluminescence quantum yield was found to be 0.26.
Consider `CCCCc1ccc(C#Cc2ccc3nc4ccc(C#Cc5ccc(CCCC)cc5)cn4c(=O)c3c2)cc1`, for which, under “in ClCCl”, the photoluminescence quantum yield is 0.48.
On to `CC(=O)n1cc(/C=C/c2ccc([N+](=O)[O-])cc2)c2ccccc21`, for which the photoluminescence quantum yield was 0.045 (in CC#N), 0.008 (in CCCCCCC), 0.002 (in CO) and 0.003 (in O).
Under “in c1cc(-c2cccc(-n3c4ccccc4c4ccccc43)c2)cc(-n2c3ccccc3c3ccccc32)c1”, `Cc1cc(C)c2c(c1)c1cc(C)cc(C)c1n2-c1ccc2c(c1)B(c1c(C(C)C)cc(C(C)C)cc1C(C)C)c1cc(-n3c4c(C)cc(C)cc4c4cc(C)cc(C)c43)ccc1N2c1ccccc1` yielded a photoluminescence quantum yield of 0.56.
Consider `Cc1cc(C)c(B(c2c(C)cc(C)cc2C)c2c(C)cc(N3c4ccccc4Oc4ccccc43)cc2C)c(C)c1`, for which the photoluminescence quantum yield by setting is: (in Cc1ccccc1) 0.44; (in c1ccc2c(c1)c1ccccc1n2-c1ccc(-c2ccc(-n3c4ccccc4c4ccccc43)cc2)cc1) 0.92.
